Source: patent US20090281121A1, “SUBSTITUTED 8-PIPERIDINYL-2-PYRIDINYL-PYRIMIDO[1,2-a] PYRIMIDIN-6-ONE AND 8-PIPERIDINYL-2-PYRIMIDINYL-PYRIMIDO[1,2-a] PYRIMIDIN-6-ONE DERIVATIVES” (SANOFI-AVENTIS, priority 2006, published 2009)
Structures can show the parent of a compound that is named as a salt.

How the values were obtained:
GSK3β = GSK3β (Homo sapiens, UniProt P49841); experiment: Inhibitory activity against GSK3β (33P-ATP phosphorylation of prephosphorylated GS1 peptide, two protocols); assay type: biochemical; conditions: first or second protocol not specified
Procedure: Two different protocols can be used.
In a first protocol: 7.5 μM of prephosphorylated GS1 peptide and 10 μM ATP (containing 300,000 cpm of 33P-ATP) were incubated in 25 mM Tris-HCl, pH 7.5, 0.6 mM DTT, 6 mM MgCl2, 0.6 mM EGTA, 0.05 mg/ml BSA buffer for 1 hour at room temperature in the presence of GSK3beta (total reaction volume: 100 microliters).
In a second protocol: 4.1 μM of prephosphorylated GS1 peptide and 42 μM ATP (containing 260,000 cpm 33P-ATP) were incubated in 80 mM Mes-NaOH, pH 6.5, 1 mM Mg acetate, 0.5 mM EGTA, 5 mM 2-mercaptoethanol, 0.02% Tween 20, 10% glycerol buffer for 2 hours at room temperature in the presence of GSK3beta. Inhibitors were solubilized in DMSO (final solvent concentration in the reaction medium, 1%).
The reaction was stopped with 100 microliters of a solution made of 25 g polyphosphoric acid (85% P2O5), 126 ml 85% H3PO4, H2O to 500 ml and then diluted to 1:100 before use. An aliquot of the reaction mixture was then transferred to Whatman P81 cation exchange filters and rinsed with the solution described above. Incorporated 33P radioactivity was determined by liquid scintillation spectrometry.
The phosphorylated GS-1 peptide had the following sequence NH2-[…](P)EDEE-COOH. (Woodgett, J. R. (1989) Analytical Biochemistry 180, 237-241.

GSK3β, sequence (P49841 whole entry): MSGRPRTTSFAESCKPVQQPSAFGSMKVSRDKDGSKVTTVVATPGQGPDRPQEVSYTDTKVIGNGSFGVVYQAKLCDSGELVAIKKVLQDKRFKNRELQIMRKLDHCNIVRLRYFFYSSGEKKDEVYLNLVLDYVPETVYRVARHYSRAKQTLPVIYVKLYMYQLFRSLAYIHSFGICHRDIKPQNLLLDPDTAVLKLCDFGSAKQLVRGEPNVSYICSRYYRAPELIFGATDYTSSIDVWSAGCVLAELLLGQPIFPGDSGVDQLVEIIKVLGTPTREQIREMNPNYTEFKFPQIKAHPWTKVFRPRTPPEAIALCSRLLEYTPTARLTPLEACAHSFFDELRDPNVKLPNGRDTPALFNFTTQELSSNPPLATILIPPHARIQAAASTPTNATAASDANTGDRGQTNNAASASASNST

| melting point | IC50 (GSK3β) | Structure (SMILES) |
| --- | --- | --- |
| 255 to 257 °C | – | O=C(CN1c2nc(-c3ccncc3)cc(=O)n2CCC1C1CCNCC1)c1cccc(Br)c1 (racemic) (as salt: hydrochloride) [compound 8, (−)9-[2-Oxo-2-(3-bromo-phenyl)ethyl]-8-(4-piperidinyl)-2-(4-pyridinyl)-6,7,8,9-tetrahydro-4H-pyrimido[1,2-a]pyrimidin-4-one] |
| – | 12 nM | O=C(CN1c2nc(-c3ccncc3)cc(=O)n2CCC1C1CCNCC1)c1ccccc1 (racemic) [Compound No. 3, (+/−)-9-(2-Oxo-2-phenylethyl)-8-(4-piperidinyl)-2-(4-pyridinyl)-6,7,8,9-tetrahydro-4H-pyrimido[1,2-a]pyrimidin-4-one] |
| 270 to 272 °C | – | COc1cc(F)ccc1CCN1c2nc(-c3ccncc3)cc(=O)n2CCC1C1CCNCC1 (racemic) [compound 7, (+/−)9-[2-(4-fluoro-2-methoxy-phenyl)ethyl]-8-(4-piperidinyl)-2-(4-pyridinyl)-6,7,8,9-tetrahydro-4H-pyrimido[1,2-a]pyrimidin-4-one] |
